How the values were obtained:
Experiment in all cases: KinomeScan profiling
Format in all cases: binding
MLK2 = MLK2 (Homo sapiens, UniProt Q02779); conditions: MLK2, 1 μM; read-out: % control
Outline: (§1)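 Percent-of-control values derive from RLU, calculated as (test − positive)/(negative − positive) × 100, where DMSO defines 100% and a positive control compound defines 0%. Each compound was tested at 1 μM in the 468-kinase panel; sub-35% readings indicate activity.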

TNK2 = TNK2 (Homo sapiens, UniProt Q07912); conditions: TNK2, 1 μM; read-out: % control
Outline: as §1

ERBB4 = ERBB4 (Homo sapiens, UniProt Q15303); conditions: ERBB4, 1 μM; read-out: % control
Outline: (§2)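 Luminescence (RLU) was converted to percent of control, with DMSO set as 100% and a reference compound as 0%. Test compounds were run at 1 μM against 468 kinases. Kinases showing below 35% of control were scored as bound.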

CDC2L2 = molecular target: T1, CDC2L2 (Homo sapiens, UniProt Q9UQ88); conditions: CDC2L2, 1 μM; read-out: % control
T1 sequence (Q9UQ88 1-783): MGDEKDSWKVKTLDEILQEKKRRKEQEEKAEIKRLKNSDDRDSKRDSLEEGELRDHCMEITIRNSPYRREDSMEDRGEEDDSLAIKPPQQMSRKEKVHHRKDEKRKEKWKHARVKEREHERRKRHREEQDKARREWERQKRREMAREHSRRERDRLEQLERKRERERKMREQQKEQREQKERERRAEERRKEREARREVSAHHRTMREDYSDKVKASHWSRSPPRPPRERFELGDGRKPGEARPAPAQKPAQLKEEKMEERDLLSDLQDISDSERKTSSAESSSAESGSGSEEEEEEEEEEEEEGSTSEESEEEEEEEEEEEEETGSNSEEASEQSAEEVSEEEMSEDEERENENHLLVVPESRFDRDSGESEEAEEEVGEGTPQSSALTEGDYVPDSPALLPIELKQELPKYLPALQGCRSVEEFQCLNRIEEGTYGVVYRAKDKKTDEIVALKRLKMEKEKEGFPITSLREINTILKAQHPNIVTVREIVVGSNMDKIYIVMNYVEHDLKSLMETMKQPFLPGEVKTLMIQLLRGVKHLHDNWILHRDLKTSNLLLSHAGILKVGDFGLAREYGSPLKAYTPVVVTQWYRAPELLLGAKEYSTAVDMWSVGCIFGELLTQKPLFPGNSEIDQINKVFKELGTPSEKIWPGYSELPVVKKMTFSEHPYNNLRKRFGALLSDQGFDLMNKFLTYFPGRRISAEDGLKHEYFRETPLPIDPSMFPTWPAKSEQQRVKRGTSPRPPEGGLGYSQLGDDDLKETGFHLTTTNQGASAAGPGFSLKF
Outline: as §1

EPHA2 = EPHA2 (Homo sapiens, UniProt P29317); conditions: EPHA2, 1 μM; read-out: % control
Outline: as §2

AKT3 = molecular target: T2, AKT3 (Homo sapiens, UniProt Q9Y243); conditions: AKT3, 1 μM; read-out: % control
T2 construct: purchased KinomeScan®
Outline: as §1

BRSK2 = molecular target: T3, BRSK2 (Homo sapiens, UniProt Q8IWQ3); conditions: BRSK2, 1 μM; read-out: % control
T3 sequence (Q8IWQ3 1-736): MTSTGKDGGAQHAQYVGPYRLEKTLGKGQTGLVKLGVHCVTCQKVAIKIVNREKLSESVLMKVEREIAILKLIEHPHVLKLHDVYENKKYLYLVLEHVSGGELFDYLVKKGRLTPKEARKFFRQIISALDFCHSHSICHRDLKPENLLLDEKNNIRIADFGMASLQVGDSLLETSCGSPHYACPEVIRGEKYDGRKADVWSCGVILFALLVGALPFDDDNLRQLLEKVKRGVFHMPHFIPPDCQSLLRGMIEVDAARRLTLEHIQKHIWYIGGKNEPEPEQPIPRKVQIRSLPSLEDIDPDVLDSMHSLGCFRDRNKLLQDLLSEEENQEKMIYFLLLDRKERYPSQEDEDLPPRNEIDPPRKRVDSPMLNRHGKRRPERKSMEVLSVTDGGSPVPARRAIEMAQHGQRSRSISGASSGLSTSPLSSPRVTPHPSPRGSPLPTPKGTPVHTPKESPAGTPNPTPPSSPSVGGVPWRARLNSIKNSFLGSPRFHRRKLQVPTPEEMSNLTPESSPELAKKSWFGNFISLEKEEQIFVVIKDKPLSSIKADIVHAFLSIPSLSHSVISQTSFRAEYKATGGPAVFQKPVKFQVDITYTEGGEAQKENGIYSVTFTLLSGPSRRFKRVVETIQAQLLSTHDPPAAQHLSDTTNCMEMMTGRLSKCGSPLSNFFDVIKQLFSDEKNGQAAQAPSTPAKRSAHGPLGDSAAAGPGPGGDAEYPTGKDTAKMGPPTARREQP
Outline: as §1

CHEK2 = CHEK2 (Homo sapiens, UniProt O96017); conditions: CHEK2, 1 μM; read-out: % control
Outline: as §1

BIKE = molecular target: T4, BIKE (Homo sapiens, UniProt Q9NSY1); conditions: read-out: % control
T4 construct: purchased KinomeScan®
Outline: as §1

ALK(L1196M) = molecular target: T5, ALK(L1196M) (Homo sapiens, UniProt Q9UM73, L1196M); conditions: read-out: % control
T5 construct: purchased KinomeScan®
Outline: as §1

PRKCQ = PRKCQ (Homo sapiens, UniProt Q04759); conditions: read-out: % control
Outline: as §1

Chain of CHEK2 (O96017 whole entry): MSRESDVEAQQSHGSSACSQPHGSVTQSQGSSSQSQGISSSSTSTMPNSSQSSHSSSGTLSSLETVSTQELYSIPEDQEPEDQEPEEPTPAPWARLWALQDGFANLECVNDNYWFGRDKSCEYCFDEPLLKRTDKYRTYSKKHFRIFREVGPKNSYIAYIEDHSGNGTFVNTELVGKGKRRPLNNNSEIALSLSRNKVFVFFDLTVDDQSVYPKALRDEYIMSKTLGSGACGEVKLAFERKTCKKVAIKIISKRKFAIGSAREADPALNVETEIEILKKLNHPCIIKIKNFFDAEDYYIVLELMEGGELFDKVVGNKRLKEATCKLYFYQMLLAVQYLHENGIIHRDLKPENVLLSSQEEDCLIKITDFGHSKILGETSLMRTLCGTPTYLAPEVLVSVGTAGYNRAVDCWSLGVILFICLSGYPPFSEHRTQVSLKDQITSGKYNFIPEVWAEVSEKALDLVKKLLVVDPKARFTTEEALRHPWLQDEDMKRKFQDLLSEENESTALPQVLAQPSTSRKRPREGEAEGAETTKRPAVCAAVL
T4 sequence (Q9NSY1 whole entry): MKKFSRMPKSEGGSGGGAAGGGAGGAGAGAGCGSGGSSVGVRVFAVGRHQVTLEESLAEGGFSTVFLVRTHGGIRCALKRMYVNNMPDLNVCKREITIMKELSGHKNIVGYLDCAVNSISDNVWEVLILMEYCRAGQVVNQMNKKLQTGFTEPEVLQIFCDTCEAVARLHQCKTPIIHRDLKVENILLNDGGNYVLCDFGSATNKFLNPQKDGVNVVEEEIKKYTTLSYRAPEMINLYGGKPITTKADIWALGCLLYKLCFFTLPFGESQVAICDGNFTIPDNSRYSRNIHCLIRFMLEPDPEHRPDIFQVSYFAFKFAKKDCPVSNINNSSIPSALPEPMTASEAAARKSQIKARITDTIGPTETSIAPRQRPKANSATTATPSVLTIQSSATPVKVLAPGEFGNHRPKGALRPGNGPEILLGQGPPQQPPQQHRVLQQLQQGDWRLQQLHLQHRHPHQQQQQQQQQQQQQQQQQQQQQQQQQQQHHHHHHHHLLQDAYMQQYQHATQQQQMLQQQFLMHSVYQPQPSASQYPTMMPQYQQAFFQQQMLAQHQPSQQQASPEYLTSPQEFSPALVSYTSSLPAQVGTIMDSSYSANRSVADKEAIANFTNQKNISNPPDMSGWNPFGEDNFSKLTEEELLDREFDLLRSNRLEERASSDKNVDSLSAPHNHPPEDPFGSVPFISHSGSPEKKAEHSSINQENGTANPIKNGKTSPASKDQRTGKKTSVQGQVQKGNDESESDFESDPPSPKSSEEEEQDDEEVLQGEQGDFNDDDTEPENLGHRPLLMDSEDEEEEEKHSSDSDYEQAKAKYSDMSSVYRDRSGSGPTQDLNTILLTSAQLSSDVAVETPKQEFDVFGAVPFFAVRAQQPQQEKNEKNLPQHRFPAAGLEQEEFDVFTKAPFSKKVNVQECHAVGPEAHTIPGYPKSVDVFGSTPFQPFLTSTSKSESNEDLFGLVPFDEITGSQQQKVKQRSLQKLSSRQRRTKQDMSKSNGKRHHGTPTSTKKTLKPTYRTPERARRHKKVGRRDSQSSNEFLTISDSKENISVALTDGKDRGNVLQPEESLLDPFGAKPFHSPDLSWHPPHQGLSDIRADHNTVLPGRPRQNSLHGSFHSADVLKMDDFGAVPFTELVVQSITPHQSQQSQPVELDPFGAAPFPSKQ
T5 sequence (Q9UM73 19-1620 L1196M): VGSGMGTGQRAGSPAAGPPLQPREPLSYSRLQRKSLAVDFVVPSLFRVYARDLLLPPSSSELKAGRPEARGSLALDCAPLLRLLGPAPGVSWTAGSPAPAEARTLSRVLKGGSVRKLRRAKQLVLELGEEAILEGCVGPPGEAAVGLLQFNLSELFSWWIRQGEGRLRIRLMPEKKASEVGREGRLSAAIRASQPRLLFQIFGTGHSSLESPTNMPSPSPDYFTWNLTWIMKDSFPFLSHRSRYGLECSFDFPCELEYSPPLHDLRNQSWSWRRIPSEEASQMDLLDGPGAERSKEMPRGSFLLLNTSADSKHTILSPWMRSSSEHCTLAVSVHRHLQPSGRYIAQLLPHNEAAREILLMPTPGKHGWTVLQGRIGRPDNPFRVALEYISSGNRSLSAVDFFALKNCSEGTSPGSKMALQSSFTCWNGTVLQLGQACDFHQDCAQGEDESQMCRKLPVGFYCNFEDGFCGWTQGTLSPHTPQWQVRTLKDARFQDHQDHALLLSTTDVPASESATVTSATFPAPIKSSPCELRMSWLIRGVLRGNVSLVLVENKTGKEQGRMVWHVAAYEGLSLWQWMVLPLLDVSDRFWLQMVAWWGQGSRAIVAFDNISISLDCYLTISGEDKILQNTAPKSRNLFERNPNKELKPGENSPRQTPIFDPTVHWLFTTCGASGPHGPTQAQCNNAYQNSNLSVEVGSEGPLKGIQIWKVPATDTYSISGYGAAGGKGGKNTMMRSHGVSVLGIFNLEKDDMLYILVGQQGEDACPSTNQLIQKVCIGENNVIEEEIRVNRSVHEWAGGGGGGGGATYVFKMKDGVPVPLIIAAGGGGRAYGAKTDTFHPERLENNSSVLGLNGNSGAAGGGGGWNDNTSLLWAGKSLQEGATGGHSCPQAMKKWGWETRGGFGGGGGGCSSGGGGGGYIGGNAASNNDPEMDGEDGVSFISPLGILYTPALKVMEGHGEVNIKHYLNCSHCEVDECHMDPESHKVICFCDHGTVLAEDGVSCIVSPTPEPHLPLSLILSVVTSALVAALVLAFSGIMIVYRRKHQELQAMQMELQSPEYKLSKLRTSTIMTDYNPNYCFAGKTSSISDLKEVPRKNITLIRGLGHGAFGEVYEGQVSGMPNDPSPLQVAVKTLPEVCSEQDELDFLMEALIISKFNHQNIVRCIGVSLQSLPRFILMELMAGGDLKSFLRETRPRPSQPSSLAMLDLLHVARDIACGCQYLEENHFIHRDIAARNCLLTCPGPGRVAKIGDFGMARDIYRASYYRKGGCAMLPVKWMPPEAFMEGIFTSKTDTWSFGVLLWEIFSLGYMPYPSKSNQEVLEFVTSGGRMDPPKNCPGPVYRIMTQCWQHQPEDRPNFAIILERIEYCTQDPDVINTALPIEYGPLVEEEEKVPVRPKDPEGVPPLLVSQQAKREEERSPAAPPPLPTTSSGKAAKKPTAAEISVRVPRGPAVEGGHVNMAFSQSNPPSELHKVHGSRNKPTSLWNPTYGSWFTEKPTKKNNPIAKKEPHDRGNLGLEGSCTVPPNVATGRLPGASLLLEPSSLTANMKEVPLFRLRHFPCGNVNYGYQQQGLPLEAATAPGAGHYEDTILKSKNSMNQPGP
Chain of EPHA2 (P29317 24-976): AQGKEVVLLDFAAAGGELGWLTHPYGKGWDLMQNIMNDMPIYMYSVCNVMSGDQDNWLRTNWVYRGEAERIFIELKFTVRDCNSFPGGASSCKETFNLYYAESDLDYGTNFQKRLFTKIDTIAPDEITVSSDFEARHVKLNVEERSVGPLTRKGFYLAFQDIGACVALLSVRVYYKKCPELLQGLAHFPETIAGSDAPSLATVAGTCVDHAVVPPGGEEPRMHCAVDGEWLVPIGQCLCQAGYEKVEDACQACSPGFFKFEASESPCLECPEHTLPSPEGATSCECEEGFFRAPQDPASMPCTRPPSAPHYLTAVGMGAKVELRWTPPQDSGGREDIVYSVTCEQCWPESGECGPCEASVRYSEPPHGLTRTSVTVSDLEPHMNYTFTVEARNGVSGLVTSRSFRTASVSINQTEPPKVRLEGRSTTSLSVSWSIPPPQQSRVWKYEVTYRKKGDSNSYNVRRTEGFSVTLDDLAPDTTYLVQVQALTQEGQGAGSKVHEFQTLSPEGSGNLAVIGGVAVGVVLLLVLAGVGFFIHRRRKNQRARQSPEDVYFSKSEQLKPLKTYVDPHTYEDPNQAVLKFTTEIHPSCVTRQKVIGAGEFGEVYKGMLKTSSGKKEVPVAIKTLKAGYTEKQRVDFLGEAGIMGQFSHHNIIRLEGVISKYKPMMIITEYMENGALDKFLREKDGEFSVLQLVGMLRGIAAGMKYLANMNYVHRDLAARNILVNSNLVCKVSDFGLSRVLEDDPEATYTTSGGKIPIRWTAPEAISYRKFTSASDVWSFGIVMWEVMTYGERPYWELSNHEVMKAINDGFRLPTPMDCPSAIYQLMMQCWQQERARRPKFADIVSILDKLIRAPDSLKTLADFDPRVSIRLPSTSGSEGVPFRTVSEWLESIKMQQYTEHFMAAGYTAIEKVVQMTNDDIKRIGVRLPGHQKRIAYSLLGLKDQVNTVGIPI
Chain of PRKCQ (Q04759 whole entry): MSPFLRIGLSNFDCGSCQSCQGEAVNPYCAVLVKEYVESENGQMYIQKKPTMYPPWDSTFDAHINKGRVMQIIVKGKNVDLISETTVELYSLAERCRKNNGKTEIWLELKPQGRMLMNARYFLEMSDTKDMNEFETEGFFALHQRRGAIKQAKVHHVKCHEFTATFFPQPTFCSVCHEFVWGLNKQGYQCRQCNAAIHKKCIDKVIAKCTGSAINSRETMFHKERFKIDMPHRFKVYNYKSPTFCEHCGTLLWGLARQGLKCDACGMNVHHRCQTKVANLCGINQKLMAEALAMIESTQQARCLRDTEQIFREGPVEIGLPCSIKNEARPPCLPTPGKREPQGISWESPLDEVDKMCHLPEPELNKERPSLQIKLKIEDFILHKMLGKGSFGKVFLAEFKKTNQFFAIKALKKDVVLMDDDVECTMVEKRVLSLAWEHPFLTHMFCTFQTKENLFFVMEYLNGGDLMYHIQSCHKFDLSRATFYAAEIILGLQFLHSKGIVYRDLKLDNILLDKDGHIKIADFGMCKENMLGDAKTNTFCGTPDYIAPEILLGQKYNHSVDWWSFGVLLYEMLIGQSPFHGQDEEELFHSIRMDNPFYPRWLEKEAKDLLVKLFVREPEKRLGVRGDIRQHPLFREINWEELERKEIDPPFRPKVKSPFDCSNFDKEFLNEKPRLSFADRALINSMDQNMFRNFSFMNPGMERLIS

Row | SMILES | remaining binding at 1 µM (MLK2) | remaining binding at 1 µM (TNK2) | remaining binding at 1 µM (ERBB4) | remaining binding at 1 µM (CDC2L2) | remaining binding at 1 µM (EPHA2) | remaining binding at 1 µM (AKT3) | remaining binding at 1 µM (BRSK2) | remaining binding at 1 µM (CHEK2) | remaining binding at 1 µM (BIKE) | remaining binding at 1 µM (ALK(L1196M)) | remaining binding at 1 µM (PRKCQ)
1 | CNc1c(-c2cnn([C@H]3CCN(C(C)=O)C[C@@H]3F)c2)cnc2[nH]cc(Cl)c12 [Compound 77, 1-((3S,4S)-4-(4-(3-chloro-4-(methylamino)-1H-pyrrolo[2,3-b]pyridin-5-yl)-1H-pyrazol-1-yl)-3-fluoropiperidin-1-yl)ethan-1-one] | 62% | 100% | 100% | 91% | 96% | 95% | 100% | 56% | 0.4% | 91% | 91%
2 | O=C(c1ccc(-c2cnc3[nH]cc(Cl)c3c2NC2CCCC2)cc1)N1CCC(N2CCOCC2)CC1 [Compound 101, (4-(3-chloro-4-(cyclopentylamino)-1H-pyrrolo[2,3-b]pyridin-5-yl)phenyl)(4-morpholinopiperidin-1-yl)methanone] | 69% | 98% | 97% | 92% | 30% | 99% | 94% | 92% | 6.8% | 94% | 45%
3 | CNc1c(-c2ccc(C(=O)N3CCC(N4CCOCC4)CC3)cc2)cnc2[nH]cc(Cl)c12 [Compound 96, (4-(3-chloro-4-(methylamino)-1H-pyrrolo[2,3-b]pyridin-5-yl)phenyl)(4-morpholinopiperidin-1-yl)methanone] | 39% | 94% | 100% | 100% | 100% | 100% | 95% | 22% | 0.85% | 51% | 76%
